Reference: US11377442B2, “Small molecule agonists and antagonists of NR2F6 activity” (ZANDER THERAPEUTICS, INC., priority 2016, dated 2022)
Like-named read-outs stand apart in the source and are kept apart here. Each block holds one molecule with its values, some of them ahead of it.

Tests used:
Format in all cases: cell-based
NR2F6 = target: T1, NR2F6 (Homo sapiens, UniProt P10588); assay: NR2F6 agonist screening, Firefly signal cmpd/DMSO; conditions: for Firefly, cmpd/DMSO repeat 1 / Firefly, cmpd/DMSO repeat 2: first set screening, 10 μM
T1 construct: expressed in transfected cells; also transient transfection
T1 sequence (P10588 1-404): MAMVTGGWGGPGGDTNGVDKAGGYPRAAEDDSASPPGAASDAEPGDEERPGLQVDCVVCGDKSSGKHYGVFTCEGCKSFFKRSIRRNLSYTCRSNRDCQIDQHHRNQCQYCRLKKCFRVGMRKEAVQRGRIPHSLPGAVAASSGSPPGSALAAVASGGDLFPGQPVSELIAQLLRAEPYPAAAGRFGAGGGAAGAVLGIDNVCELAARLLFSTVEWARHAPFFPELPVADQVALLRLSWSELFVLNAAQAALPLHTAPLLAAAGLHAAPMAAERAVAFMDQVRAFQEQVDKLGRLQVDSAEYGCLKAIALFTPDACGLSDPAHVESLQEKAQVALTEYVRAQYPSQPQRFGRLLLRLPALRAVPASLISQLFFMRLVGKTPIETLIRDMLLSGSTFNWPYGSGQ

ERα [1] = target: T2, ERα (Homo sapiens, UniProt P03372); assay: Counterscreening, Firefly signal with ERα transient transfection (Firefly_ERa); conditions: Table 15
T2 construct: expressed in transfected cells
T2 sequence (P03372 1-595): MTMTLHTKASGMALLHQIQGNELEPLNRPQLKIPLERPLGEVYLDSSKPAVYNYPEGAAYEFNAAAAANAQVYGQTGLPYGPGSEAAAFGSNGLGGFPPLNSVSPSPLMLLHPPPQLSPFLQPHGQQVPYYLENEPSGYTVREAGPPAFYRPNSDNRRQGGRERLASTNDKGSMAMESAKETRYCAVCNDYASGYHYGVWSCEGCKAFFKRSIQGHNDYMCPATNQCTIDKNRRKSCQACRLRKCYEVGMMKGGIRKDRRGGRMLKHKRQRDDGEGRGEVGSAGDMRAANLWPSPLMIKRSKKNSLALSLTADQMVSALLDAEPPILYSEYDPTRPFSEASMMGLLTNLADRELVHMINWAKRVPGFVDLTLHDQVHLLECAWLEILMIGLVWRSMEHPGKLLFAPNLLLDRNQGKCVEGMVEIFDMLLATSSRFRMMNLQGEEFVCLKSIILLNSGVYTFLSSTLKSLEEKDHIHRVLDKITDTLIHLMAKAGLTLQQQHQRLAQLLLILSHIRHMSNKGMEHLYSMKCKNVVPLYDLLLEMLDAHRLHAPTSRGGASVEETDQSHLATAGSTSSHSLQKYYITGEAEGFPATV

ERα [2] = target: T2, ERα; assay: as above; conditions: for Firefly ERalpha transient, cmpd/DMSO (mean): Table 15, 10 uM; for Firefly_ERa, cmpd/DMSO repeat 1 / Firefly_ERa, cmpd/DMSO repeat 2: ERα transient transfection, 10 μM
Method: The methodology for screening candidate compounds as NR2F6 agonists was as follows: For primary screening, hit criteria was ACT %>DMSO control+5*SD (DSO control) at 10 μM, or any compound with S/B>2. For rescreening, hit criteria was ACT %>DMSO control+3*SD (DSO control) in each replicate at 10 μM. For counterscreening, hit criteria was mean ACT<DMSO control+3*SD (DMSO control) with ERα transient transfection in duplicate at 10 μM.

Renilla_ERa = assay: Renilla signal in ERα counterscreen (Renilla_ERa); conditions: ERα transient transfection, 10 μM
Renilla = Renilla signal in NR2F6 agonist screening, cmpd/DMSO; conditions: Renilla
HEK293 pGL4 = assay: Firefly_pGL signal, cmpd/DMSO (pGL4 control cells); conditions: Homo sapiens, HEK293, Table 14, read-out: Firefly pGL4, cmpd/DMSO (mean)
[3] = repeat 1, read-out: Renilla_ERa, cmpd/DMSO repeat 1
[4] = repeat 2, read-out: Renilla_ERa, cmpd/DMSO repeat 2
[5] = Table 14, read-out: Renilla F4, cmpd/DMSO (mean)
[6] = Table 14, 10 uM, read-out: Renilla F4, cmpd/DMSO (mean)
[7] = first set screening, 10 μM, repeat 1, read-out: Renilla, cmpd/DMSO repeat 1
[8] = first set screening, 10 μM, repeat 2, read-out: Renilla, cmpd/DMSO repeat 2

Firefly F4, cmpd/DMSO (mean) (NR2F6; Table 15, 2 uM): 3.5
Firefly F4, cmpd/DMSO (mean) (NR2F6; Table 15, 10 uM): 1.2
Firefly F4, cmpd/DMSO (mean) (NR2F6; Table 15, 40 uM): 0.5
Firefly ERalpha transient, cmpd/DMSO (mean) (ERα [1]; 2 uM): 2.1
Firefly ERalpha transient, cmpd/DMSO (mean) (ERα [1]; 40 uM): 0.6
Firefly ERalpha transient, cmpd/DMSO (mean) (ERα [2]): 1.6
Compound: CCOC(=O)c1cnc2c(C)cc(C)cc2c1NCCCN1CCCCC1 [Compound Z11]

Firefly F4, cmpd/DMSO (mean) (NR2F6; Table 15, 2 uM): 1.5
Firefly F4, cmpd/DMSO (mean) (NR2F6; Table 15, 10 uM): 6.5
Firefly F4, cmpd/DMSO (mean) (NR2F6; Table 15, 40 uM): 0.6
Firefly ERalpha transient, cmpd/DMSO (mean) (ERα [1]; 2 uM): 1.7
Firefly ERalpha transient, cmpd/DMSO (mean) (ERα [1]; 40 uM): 2.9
Firefly ERalpha transient, cmpd/DMSO (mean) (ERα [2]): 9.5
Compound: CCOC(=O)c1cnc2c(C)cc(C)cc2c1NCCCN1CCCCC1 [Compound Z17]

Firefly F4, cmpd/DMSO (mean) (NR2F6; Table 15, 2 uM): 5.8
Firefly F4, cmpd/DMSO (mean) (NR2F6; Table 15, 10 uM): 1.6
Firefly F4, cmpd/DMSO (mean) (NR2F6; Table 15, 40 uM): 0.7
Firefly ERalpha transient, cmpd/DMSO (mean) (ERα [1]; 2 uM): 4.2
Firefly ERalpha transient, cmpd/DMSO (mean) (ERα [1]; 40 uM): 0.5
Firefly ERalpha transient, cmpd/DMSO (mean) (ERα [2]): 1.5
Compound: CCOC(=O)c1cnc2c(C)cc(C)cc2c1NCCCN1CCCCC1 [Compound Z10]

Firefly F4, cmpd/DMSO (mean) (NR2F6; Table 15, 2 uM): 1.3
Firefly F4, cmpd/DMSO (mean) (NR2F6; Table 15, 10 uM): 6.3
Firefly F4, cmpd/DMSO (mean) (NR2F6; Table 15, 40 uM): 0.7
Firefly ERalpha transient, cmpd/DMSO (mean) (ERα [1]; 2 uM): 1.9
Firefly ERalpha transient, cmpd/DMSO (mean) (ERα [1]; 40 uM): 0.7
Firefly ERalpha transient, cmpd/DMSO (mean) (ERα [2]): 12.7
Compound: CCOC(=O)c1cnc2c(C)cc(C)cc2c1NCCCN1CCCCC1 [Compound Z19]

Firefly F4, cmpd/DMSO (mean) (NR2F6; Table 15, 2 uM): 3.9
Firefly F4, cmpd/DMSO (mean) (NR2F6; Table 15, 10 uM): 1.8
Firefly F4, cmpd/DMSO (mean) (NR2F6; Table 15, 40 uM): 0.4
Firefly ERalpha transient, cmpd/DMSO (mean) (ERα [1]; 2 uM): 2.4
Firefly ERalpha transient, cmpd/DMSO (mean) (ERα [1]; 40 uM): 0.4
Firefly ERalpha transient, cmpd/DMSO (mean) (ERα [2]): 1.3
Compound: CCOC(=O)c1cnc2c(C)cc(C)cc2c1NCCCN1CCCCC1 [Compound Z12]

Firefly F4, cmpd/DMSO (mean) (NR2F6; Table 14, 2 uM): 1.1
Firefly F4, cmpd/DMSO (mean) (NR2F6; Table 14, 10 uM): 0.8
Firefly F4, cmpd/DMSO (mean) (NR2F6; Table 14, 40 uM): 0.7
Firefly, cmpd/DMSO repeat 1 (NR2F6): 2.5
Firefly, cmpd/DMSO repeat 2 (NR2F6): 2.5
Firefly_ERa, cmpd/DMSO repeat 1 (ERα [2]): 1.6
Firefly_ERa, cmpd/DMSO repeat 2 (ERα [2]): 1.7
Compound: CCOC(=O)c1cnn2c(-c3ccc(Cl)cc3)ccnc12 [Compound C4]
fold induction at 10 µM (Renilla_ERa; [3]): 1.1
fold induction at 10 µM (Renilla_ERa; [4]): 1.2
fold induction at 2 µM (Renilla; [5]): 0.6
fold induction at 10 µM (Renilla; [6]): 0.5
fold induction at 40 µM (Renilla; [5]): 0.5
fold induction at 10 µM (Renilla; [7]): 1.6
fold induction at 10 µM (Renilla; [8]): 1.5
fold induction at 2 µM (HEK293 pGL4): 1
fold induction at 10 µM (HEK293 pGL4): 0.9
fold induction at 40 µM (HEK293 pGL4): 1.3

Firefly F4, cmpd/DMSO (mean) (NR2F6; Table 14, 2 uM): 1.9
Firefly F4, cmpd/DMSO (mean) (NR2F6; Table 14, 10 uM): 1.2
Firefly F4, cmpd/DMSO (mean) (NR2F6; Table 14, 40 uM): 1.3
Firefly, cmpd/DMSO repeat 1 (NR2F6): 2.2
Firefly, cmpd/DMSO repeat 2 (NR2F6): 2.4
Firefly_ERa, cmpd/DMSO repeat 1 (ERα [2]): 2.5
Firefly_ERa, cmpd/DMSO repeat 2 (ERα [2]): 2.2
Compound: Cc1ccn2cc(-c3ccc(F)cc3)cc2c1 [Compound 17]
fold induction at 10 µM (Renilla_ERa; [3]): 1.3
fold induction at 10 µM (Renilla_ERa; [4]): 1
fold induction at 2 µM (Renilla; [5]): 0.8
fold induction at 10 µM (Renilla; [6]): 1
fold induction at 40 µM (Renilla; [5]): 1
fold induction at 10 µM (Renilla; [7]): 1.3
fold induction at 10 µM (Renilla; [8]): 1.4
fold induction at 2 µM (HEK293 pGL4): 1.7
fold induction at 10 µM (HEK293 pGL4): 1.6
fold induction at 40 µM (HEK293 pGL4): 1.3
